Key:
[1] = tested on: Lolium spp. resistant to HRAC group A; assay: Greenhouse experiment, post-emergence treatment of resistant ryegrass biotypes (HRAC group A resistant); type: in vivo; conditions: post-emergence (PO, BBCH 11), about 3 weeks after application, dose g of AS/ha: aclonifen 225, pendimethalin 300, diflufenican 30, mixture 225 + 300 + 30, pinoxaden + cloquintocet-mexyl 60 + 15
Method: (§1) In the standard design of the test, seeds of various broad-leaved weed and weed grass biotypes (origins) were sown in a 8-13 cm diameter pot filled with natural soil of a standard field soil (loamy silt; non-sterile) and covered with a covering soil layer of about 1 cm. The pots were then cultivated in a greenhouse (12-16 h light, temperature day 20-22° C., night 15-18° C.) until the time of application. The pots were treated on a laboratory track sprayer with spray liquors comprising the compositions according to the invention, mixtures of the prior art or components used individually. Application of the active compounds or active compound combinations formulated as WG, WP, EC or otherwise was carried out at the appropriate growth stages of the plants. The amount of water used for spray application was 100-600 l/ha. After the treatment, the plants were returned to the greenhouses.
(§2) About 3 weeks after the application, the soil action or/and foliar action was assessed visually according to a scale of 0-100% in comparison to an untreated comparative group: 0%=no noticable effect compared to the untreated comparative group; 100%=full effect compared to the untreated comparative group.
(§3) 2. Post-emergence action against weeds: seeds of various broad-leaved weed and weed grass biotypes (origins) were sown in a 8-13 cm diameter pot filled with natural soil of a standard field soil (loamy silt; non-sterile) and covered with a covering soil layer of about 1 cm. […]
(§4) Insofar as herbicidal effects of the compositions according to the invention compared to mixtures of the prior art or compared to components applied individually against economically important mono- and dicotyledonous harmful plants were the center of attention, the synergistic herbicidal activities were calculated using Colby's formula (cf. S. R. Colby; Weeds 15 (1967), 20-22): E^C=(A+B+C)−(A×B+A×C+B×C)/100+(A×B×C)/10000 where: […]
(§5) Δ=difference (%) of the measured value (%) to the expected value (%) (measured value minus expected value). […]

[2] = tested on: Lolium spp. resistant to HRAC group B; assay: Greenhouse experiment, post-emergence treatment of resistant ryegrass biotypes (HRAC group B resistant); type: in vivo; conditions: post-emergence (PO, BBCH 11), about 3 weeks after application, dose g of AS/ha: aclonifen 225, pendimethalin 300, diflufenican 30, mixture 225 + 300 + 30, mesosulfuron + iodosulfuron + mefenpyr 15 + 3 + 45
Method: as §1, §2, §3, §4, §5

Compound | herbicidal effect (visual assessment, scale 0-100% vs untreated), measured value [1] | herbicidal effect (visual assessment, scale 0-100% vs untreated), measured value [2]
Nc1c([N+](=O)[O-])ccc(Oc2ccccc2)c1Cl [(A) aclonifen, 2-chloro-6-nitro-3-phenoxybenzenamine] | 25% | 50%
O=C(Nc1ccc(F)cc1F)c1cccnc1Oc1cccc(C(F)(F)F)c1 [(C) diflufenican, N-(2,4-difluorophenyl)-2-[3-(trifluoromethyl)phenoxy]-3-pyridinecarboxamide] | 10% | 5%
CCC(CC)Nc1c([N+](=O)[O-])cc(C)c(C)c1[N+](=O)[O-] [(B) pendimethalin, N-(1-ethylpropyl)-3,4-dimethyl-2,6-dinitrobenzenamine] | 5% | 0%
